Source: US11209437B2, “Fluorescent probe and preparation method and use thereof” (Fluorescence Diagnosis (shanghai) Biotech Company Ltd., priority 2016, dated 2021)

Assays:
[1] = Fluorescence of free probe prior to binding to a protein tag; assay type: physicochemical
Experimental: (§1) Probes were mixed with corresponding protein tags to obtain mixed samples, in which the final probe concentration was 5 μM, and the final protein tag concentration was 10 μM. The mixed samples were incubated 37° C. for 1 hr, fluorescence spectrophotometer was used to detect the change in fluorescence intensity, and the results are shown in Table 1.
(§2) From the quantum yield of probe bound to protein tag, after reacting with the protein tags, the probes of the Examples could be detected to have significant signal enhancement in corresponding excitation transmission channels, the fluorescence activation multiple reached several hundreds to a thousand or more, and the brightness was high, which illustrates that after the probes of the Examples are bound to the protein tags, fluorescence of the probes can be activated, and the probes have good fluorescent molecular switching properties. In contrast, though the fluorescence of the reference probes could also be activated, the quantum yield of activated fluorescence was very low, and the brightness was very poor. In particular, in view of comparison results between probe 98 and reference probe 99, probe 101 and reference probe 102, probe 103 and reference probe 104, probe 105 and reference probe 106, probe 107 and reference probe 108, probe 109 and reference probe 110, probe 111 and reference probe 112, probe 114 and reference probe 115, probe 117 and reference probe 118, probe 120 and reference probe 121 in Table 1, for the same fluorescent dye, when the ligand is connected to the electron donor part of the fluorescent dye, the fluorescence activation brightness of the probe is much higher than the reference probe in which ligand is connected to the electron acceptor part of the fluorescent dye.

[2] = Viscosity responsiveness: fluorescence emission spectra of probes in glycerol and methanol; assay type: physicochemical; details: for Emission wavelength: excited at maximum excitation wavelength of each probe; for Fluorescence ratio in glycerol to methanol: probe 1×10^−5 M
Experimental: Probes 1 to 98, 101, 103, 105, 107, 109, 111, 114, 117, and 120, and the reference probes 99, 100, 102, 104, 106, 108, 110, 112, 113, 115, 116, 118, 119, 121, BG-CCVJ and BG-Gly-CCVJ were dissolved in dimethyl sulfoxide, respectively, to prepare mother liquors having a concentration of 1×10^−2 M, to each of which glycerol and methanol were added and uniformly mixed, to prepare solutions finally having a concentration of 1×10^−5 M. Depending on the probes, fluorescence emission spectra of the probes were detected successively with the maximum excitation wavelength of each probe under the same conditions, and the results were shown in Table 1.
That is, these probes are sensitive to viscosity changes and have viscosity responsiveness.

[3] = target: T1, SNAP protein tags (Homo sapiens, UniProt P16455, A127T/A154D/C150Q/C62A/E30R/G131K/G132T/G153L/K125A/K32I/L33F/M134L/N157G/Q115S/Q116H/R128A/R135S/S151G/S152D/S159E); assay: Fluorescence activation of probe after incubation with corresponding protein tag (SNAP); assay type: biochemical; details: probe 5 μM, protein tag 10 μM, 37° C., 1 hr
T1 sequence (P16455 1-182 E30R/K32I/L33F/C62A/Q115S/Q116H/K125A/A127T/R128A/G131K/G132T/M134L/R135S/C150Q/S151G/S152D/G153L/A154D/N157G/S159E): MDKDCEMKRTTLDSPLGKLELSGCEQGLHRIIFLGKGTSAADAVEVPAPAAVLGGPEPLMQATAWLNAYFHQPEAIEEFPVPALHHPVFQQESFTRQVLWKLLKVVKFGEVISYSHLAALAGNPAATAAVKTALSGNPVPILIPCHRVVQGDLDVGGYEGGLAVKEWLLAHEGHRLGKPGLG
Experimental: as §1, §2

Row | SMILES | Quantum yield of free probe [1] | Emission wavelength [2] | Fluorescence ratio in glycerol to methanol [2] | Fluorescence activation multiple [3] | Quantum yield of probe bound to protein tag [3]
1 | CN(CCOC(=O)NCc1ccc(COc2cc(Cl)nc(N)n2)cc1)c1cc2sc(/C=C(\C#N)c3nc4ccccc4o3)cc2s1 [probe 25] | <0.001 | 590 nm | 1621 | 670 | 0.36
2 | CN(CCOC(=O)NCc1ccc(COc2cc(Cl)nc(N)n2)cc1)c1ccc(/C=C(\C#N)c2nc3ccccc3o2)cc1 [probe 5] | <0.001 | 555 nm | 790 | 1174 | 0.15
3 | N#C/C(=C\c1ccc2c(c1)SCCN2CCOC(=O)NCc1ccc(COc2nc(N)nc3[nH]cnc23)cc1)C(=O)O [probe 103] | <0.001 | 515 nm | 321 | 651 | 0.27
4 | CN(CCOC(=O)NCc1ccc(COc2nc(N)nc3[nH]cnc23)cc1)c1cc2c(s1)-c1sc(/C=C(/C#N)C(=O)OC(C)(C)C)cc1[Si]2(C)C [probe 74] | 0.0025 | 680 nm | 297 | 311 | 0.78
5 | CN(CCO)c1ccc(-c2ccc(/C=C(\C#N)C(=O)NCc3ccc(COc4nc(N)nc5[nH]cnc45)cc3)s2)s1 [Reference Probe 121, reference compound] | <0.001 | 655 nm | 219 | 39 | 0.01
6 | N#C/C(=C\c1ccc2c(c1)SCCN2CCOC(=O)NCc1ccc(COc2nc(N)nc3[nH]cnc23)cc1)c1nc2ccccc2o1 [probe 85] | <0.001 | 535 nm | 187 | 391 | 0.15
7 | CN(CCOC(=O)NCc1ccc(COc2cc(Cl)nc(N)n2)cc1)c1ccc(/C=C(\C#N)C(=O)OC(C)(C)C)cc1 [probe 4] | <0.001 | 480 nm | 562 | 490 | 0.35
8 | CN(CCO)c1ccc(-c2ccc(/C=C(\C#N)C(=O)NCc3ccc(COc4nc(N)nc5[nH]cnc45)cc3)s2)cc1 [Reference Probe 118, reference compound] | <0.001 | 621 nm | 158 | 29 | 0.02
9 | CN(CCOC(=O)NCc1ccc(COc2nc(N)nc3[nH]cnc23)cc1)c1cc2sc3cc(/C=C(\C#N)c4nc5ccccc5o4)sc3c2s1 [probe 61] | 0.0012 | 620 nm | 817 | 668 | 0.77
10 | COCCNC(=O)/C(C#N)=C/c1cc2cc3sc(N(C)CCOC(=O)NCc4ccc(COc5nc(N)nc6[nH]cnc56)cc4)cc3cc2s1 [probe 71] | 0.0028 | 640 nm | 121 | 239 | 0.67
11 | CN(CCO)c1cc2c(s1)-c1sc(/C=C(/C#N)C(=O)NCc3ccc(COc4nc(N)nc5[nH]cnc45)cc3)cc1C2(C)C [Reference Probe 99, reference compound] | <0.001 | 649 nm | 129 | 53 | 0.01
